Experimental data taken from ChEMBL document CHEMBL4483862, “Open-source discovery of chemical leads for next-generation chemoprotective antimalarials” (2018).

Test system: Plasmodium berghei
Test: Luciferase/luciferin-expressing antifolate-resistant parasites were used to infect a culture of HepG2 cells that were pre-incubated with compounds. Infected hepatocytes emit light due to the luciferase reaction. Assay results are presented as the percent inhibition of light emission compared to control. […]
Format: functional
Conditions: sporozoite; for IC90: read-out: LUCIFERASE INFECTION ASSAY - IC90
[1] = read-out: LUCIFERASE INFECTION ASSAY - IC50

SMILES	IC90 [µM]	IC50 [1] [µM]	further results
CC(C)(C)c1ccc(C(=O)Nc2ncccc2O)cc1	0.647	–	IC50 (FFLUC_HILL_SLOPE 1.42, FFLUC_R_SQUARED 0.79, PBLUC_HILL_SLOPE 0.554, PBLUC_R_SQUARED 0.72, read-out: LUCIFERASE INFECTION ASSAY - IC50): 0.0122 µM
COCc1ccc(C(=O)Nc2ccc(-n3cnc4ccccc43)nc2)cc1	> 10	–	IC50 (HEPG2TOX_HILL_SLOPE 7.46, HEPG2TOX_R_SQUARED 0.472, PBLUC_HILL_SLOPE 11.4, PBLUC_R_SQUARED 0.343, read-out: LUCIFERASE INFECTION ASSAY - IC50): 9.69 µM
O=C(CN1CCC(n2c(=O)[nH]c3ccccc32)CC1)NCCC1=CCCCC1	> 10	> 10	–
CCCc1ccc(-c2nc(-c3cccs3)no2)cc1	0.0812	–	–
O=C(Nc1ccc(OC(F)(F)F)cc1)Nc1cncc(C(F)(F)F)c1	6.72	–	IC50 (FFLUC_HILL_SLOPE 0.707, FFLUC_R_SQUARED 0.204, PBLUC_HILL_SLOPE 4.06, PBLUC_R_SQUARED 0.292, read-out: LUCIFERASE INFECTION ASSAY - IC50): 3.91 µM
Fc1ccc(-c2csc3ncnc(Sc4nnc(NC5CC5)s4)c23)cc1	> 10	> 10	–
CC(C)c1ccccc1N(C(=O)C1CC(=O)N(CCc2ccccc2)C1)c1nc2ccccc2s1 (stereo not drawn)	> 10	–	IC50 (HEPG2TOX_HILL_SLOPE 7.95, HEPG2TOX_R_SQUARED 0.294, read-out: LUCIFERASE INFECTION ASSAY - IC50): > 10 µM
CN(C)C(CNc1ncnc2sc(-c3ccccc3)cc12)c1ccco1 (stereo not drawn)	> 10	–	IC50 (PBLUC_HILL_SLOPE 12.3, PBLUC_R_SQUARED 0.199, read-out: LUCIFERASE INFECTION ASSAY - IC50): 9.76 µM
CCC(C)(C)c1ccc(Oc2ccc(NC(=O)COC(=O)c3ccc(Cl)c(S(N)(=O)=O)c3)cc2)cc1	> 10	–	IC50 (PBLUC_HILL_SLOPE 2.55, PBLUC_R_SQUARED 0.138, read-out: LUCIFERASE INFECTION ASSAY - IC50): 5.78 µM
CC(C)c1ccc(-c2ccc3nnc(-c4ccc5nccnc5c4)n3c2)cc1	> 10	> 10	–
CCc1ccccc1-n1c(SCCn2c(=O)oc3ccccc32)nc2ccccc2c1=O	> 10	> 10	–
Cc1ccccc1NC(=O)Nc1scc(S(=O)(=O)C(C)C)c1Cl	> 8.85	> 8.85	–
COc1cc(/C=C/C(=O)Nc2ccc3c(c2)nc2n3CCCCC2)ccc1OS(=O)(=O)c1ccc(C)cc1	8.3	–	IC50 (HEPG2TOX_HILL_SLOPE 1.59, HEPG2TOX_R_SQUARED 0.591, PBLUC_HILL_SLOPE 1.96, PBLUC_R_SQUARED 0.277, read-out: LUCIFERASE INFECTION ASSAY - IC50): 2.71 µM
Cc1cccc(NC2=C(Cl)C(=O)c3ccccc3C2=O)c1	1.4	–	IC50 (HEPG2TOX_HILL_SLOPE 3.88, HEPG2TOX_R_SQUARED 0.992, PBLUC_HILL_SLOPE 14.7, PBLUC_R_SQUARED 0.858, read-out: LUCIFERASE INFECTION ASSAY - IC50): 1.2 µM
N#Cc1cc(NS(=O)(=O)c2c[nH]c(C(=O)N3CCCC3)c2)ccc1Cl	> 10	–	IC50 (PBLUC_HILL_SLOPE 1.14, PBLUC_R_SQUARED 0.85, read-out: LUCIFERASE INFECTION ASSAY - IC50): 5.33 µM
OCCNc1nc(Sc2ccc(Cl)cc2)nc2ccccc12	> 10	> 10	–
O=C(Nc1nccs1)c1ccc(N2CCCCCC2)nc1	> 10	–	IC50 (PBLUC_HILL_SLOPE 1.4, PBLUC_R_SQUARED 0.612, read-out: LUCIFERASE INFECTION ASSAY - IC50): 2.36 µM
CCOc1cc(/C=C2\COc3ccccc3C2=O)ccc1OCC(=O)N(C)C	> 10	> 10	–
CCCCNC(=O)c1c(NC(=O)c2ccc(Cl)cc2Cl)nc2ccc(C)cn12	1.73	–	IC50 (FFLUC_HILL_SLOPE 0.85, FFLUC_R_SQUARED 0.0513, HEPG2TOX_HILL_SLOPE 0.9, HEPG2TOX_R_SQUARED 0.94, PBLUC_HILL_SLOPE 2.97, PBLUC_R_SQUARED 0.791, read-out: LUCIFERASE INFECTION ASSAY - IC50): 0.826 µM
COc1ccc(Cn2nc(C(=O)NC3CCCC3)c3c2CCN(C(=O)c2cc4ccccc4o2)C3)cc1	> 6.62	–	IC50 (PBLUC_HILL_SLOPE 3.73, PBLUC_R_SQUARED 0.19, read-out: LUCIFERASE INFECTION ASSAY - IC50): 4.5 µM
COc1ccc(-c2cnc3c(Nc4cccc(OC(F)(F)C(F)F)c4)nccn23)cc1	2.67	–	IC50 (HEPG2TOX_HILL_SLOPE 1.95, HEPG2TOX_R_SQUARED 0.977, PBLUC_HILL_SLOPE 27.6, PBLUC_R_SQUARED 0.693, read-out: LUCIFERASE INFECTION ASSAY - IC50): 2.47 µM
OCc1ccc(-c2cnc3cnc(-c4cnn(Cc5ccccc5)c4)cn23)cc1	> 8.65	> 8.65	–
